Results: PubChem BioAssay (NCI)
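All cell lines were grown in 96-well plates and treated with compound for 48 hours. Abbreviation: GI50, concentration required for 50% inhibition of growth. TGI: total growth inhibition.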

How the values were obtained:
Assay in all cases: inhibition of tumour cell growth, NCI panel, 48 h
[1] = test system: A549 NSCLC
[2] = test system: CCRF-CEM leukemia
[3] = test system: IGROV1 ovarian
[4] = test system: K-562 leukemia
[5] = test system: NCI-H226 lung
[6] = test system: SK-MEL-5 melanoma
[7] = test system: SNB-75 CNS
[8] = test system: U251 CNS
[9] = test system: UACC-62 melanoma
[10] = test system: MDA-MB-435

| Compound | GI50 [1] | TGI [1] | GI50 [2] | TGI [2] | GI50 [3] | TGI [3] | GI50 [4] | TGI [4] | GI50 [5] | TGI [5] | GI50 [6] | TGI [6] | GI50 [7] | TGI [7] | GI50 [8] | TGI [8] | GI50 [9] | TGI [9] | GI50 [10] | TGI [10] |
| --- | --- | --- | --- | --- | --- | --- | --- | --- | --- | --- | --- | --- | --- | --- | --- | --- | --- | --- | --- | --- |
| Cc1ccc(N=C[N-]c2ccc(C)cc2)cc1.Cc1ccc(N=C[N-]c2ccc(C)cc2)cc1.O=C([O-])C(F)(F)F.O=C([O-])C(F)(F)F.[OH3+].[OH3+].[Rh+2].[Rh+2] | > 100 µM | > 100 µM | 23.2 µM | 55.8 µM | 26.6 µM | 72.2 µM | 25.4 µM | 67.1 µM | 89.6 µM | > 100 µM | 30.7 µM | > 100 µM | 16.8 µM | 53.9 µM | 25.8 µM | 72.3 µM | 32.4 µM | 87.9 µM | – | – |
| Cc1cc(N(CCOS(C)(=O)=O)CCOS(C)(=O)=O)ccc1C(=O)O | > 100 µM | > 100 µM | 67.4 µM | > 100 µM | – | – | > 100 µM | > 100 µM | > 100 µM | > 100 µM | > 100 µM | > 100 µM | – | – | > 100 µM | > 100 µM | > 100 µM | > 100 µM | > 100 µM | > 100 µM |
| CSc1cnc2ccccc2c1Sc1c[nH]c2ccccc2c1=O | – | 24.8 µM | – | > 87.3 µM | – | 43.1 µM | – | > 58.1 µM | – | 33 µM | – | 26.6 µM | – | 10.3 µM | – | 23.8 µM | – | 25.1 µM | – | – |
| CCC[CH2][Sn]([CH2]CCC)([S]C#N)[S]C#N | 3.78 µM | 11.9 µM | 0.224 µM | 0.869 µM | 1.27 µM | 2.78 µM | 0.215 µM | 1.35 µM | 1.77 µM | 3.25 µM | 0.483 µM | 1.76 µM | 0.592 µM | 2.08 µM | 0.768 µM | 2.04 µM | 0.58 µM | 2 µM | – | – |
| CCC(C)CC(C)CC(C)/C=C(\C)C1=C(C)CC(C)(O)O1 (stereo not given) | – | > 100 µM | – | > 100 µM | – | > 100 µM | – | > 100 µM | – | > 100 µM | – | > 100 µM | – | > 100 µM | – | > 100 µM | – | > 100 µM | – | – |
| N#Cc1ccccc1NC(=O)C(=O)C1NC(=S)NC1=O (stereo not given) | – | > 100 µM | – | > 100 µM | – | > 100 µM | – | > 100 µM | – | > 100 µM | – | > 100 µM | – | > 100 µM | – | > 100 µM | – | > 100 µM | – | – |
| COc1ccc2oc3c(OC)c(OC)c(OC)cc3c(=O)c2c1 | – | > 100 µM | – | > 100 µM | – | > 100 µM | – | > 100 µM | – | – | – | > 100 µM | – | 84.5 µM | – | > 100 µM | – | > 100 µM | – | – |
| Cc1ccc(NC(=O)C(=O)CC(=O)c2c(C)n([O-])c3ccccc3[n+]2=O)cc1C | – | > 100 µM | – | > 100 µM | – | > 100 µM | – | > 100 µM | – | > 100 µM | – | > 100 µM | – | > 100 µM | – | > 100 µM | – | > 100 µM | – | – |
| C1CCCCc2nc3c(nc2CCC1)c1nc2c(nc1c1nc4c(nc31)CCCCCCCC4)CCCCCCCC2 | – | > 100 µM | – | > 100 µM | – | > 100 µM | – | > 100 µM | – | – | – | – | – | > 100 µM | – | > 100 µM | – | > 100 µM | – | – |
| CCCCCCSSC(=S)N(CC)CC | 32.4 µM | 98.6 µM | – | – | 31.5 µM | 86.7 µM | 14.7 µM | 39.5 µM | 35.4 µM | > 100 µM | 14.6 µM | 31.6 µM | 16.8 µM | 47.6 µM | 14.2 µM | 30.6 µM | 17.2 µM | 36.9 µM | 22.1 µM | 57.9 µM |
| COc1ccc(C2=Nc3ccccc3SC(C)C2)cc1OC (stereo not given) | – | – | – | 87.3 µM | – | 29.7 µM | – | 56.6 µM | – | 36.6 µM | – | 37 µM | – | 35 µM | – | 30.9 µM | – | 32.4 µM | – | – |
| COc1cc2c(c(OC)c1OC)-c1ccc(SC)c(=O)cc1[C@@H](NCc1ccc([N+](=O)[O-])cc1)CC2 | – | > 100 µM | – | – | – | > 100 µM | – | 37.5 µM | – | 0.0134 µM | – | 17.5 µM | – | > 100 µM | – | – | – | 51.2 µM | – | – |
| CCCCCCCC1(c2ccc(N)cc2)CCC(=O)NC1=O (stereo not given) | – | > 100 µM | – | – | – | > 100 µM | – | > 100 µM | – | – | – | 49.6 µM | – | 96.2 µM | – | – | – | > 100 µM | – | – |
| COc1ccc(C)cc(=O)c1O | – | > 100 µM | – | 72.5 µM | – | > 100 µM | – | > 100 µM | – | > 100 µM | – | > 100 µM | – | > 100 µM | – | > 100 µM | – | > 100 µM | – | – |
| O=[N+]([O-])c1ccc(Cl)c(CNc2ncnc3c2ncn3C2CCCCO2)c1 (stereo not given) | – | > 100 µM | – | – | – | > 100 µM | – | > 100 µM | – | 86.6 µM | – | 52.3 µM | – | > 100 µM | – | > 100 µM | – | > 100 µM | – | 30.3 µM |
| CCN(CC)CC1CCCCN1CC(=O)N1CC(C)C(=O)Nc2ccccc21 (stereo not given) | – | > 100 µM | – | > 100 µM | – | > 100 µM | – | > 100 µM | – | > 100 µM | – | > 100 µM | – | – | – | > 100 µM | – | > 100 µM | – | – |
| Nc1nc2c(C(=O)NCc3cccs3)nnn2c2cccc(Cl)c12 | – | > 100 µM | – | 55.6 µM | – | > 100 µM | – | > 100 µM | – | > 100 µM | – | > 100 µM | – | – | – | > 100 µM | – | > 100 µM | – | > 100 µM |
| COc1cc(/C=C/c2ccc(O)c(OC)c2)cc(OC)c1 | – | > 100 µM | – | > 100 µM | – | > 100 µM | – | > 100 µM | – | – | – | 77.7 µM | – | 97 µM | – | > 100 µM | – | – | – | – |
| CC1=C(SC#N)S(=O)(=O)N(c2ccccc2)C(C)=C1SC#N | – | > 100 µM | – | 45.8 µM | – | > 100 µM | – | 66 µM | – | 81.6 µM | – | > 100 µM | – | 63.9 µM | – | 35.4 µM | – | > 100 µM | – | – |
| COc1ccc(-c2ccc(/C=N/n3c(COc4ccccc4Cl)nn(CN4CCOCC4)c3=S)o2)c([N+](=O)[O-])c1 | 27.4 µM | > 100 µM | 18.7 µM | 47.9 µM | 59.5 µM | > 100 µM | 18.2 µM | 41 µM | – | – | – | – | – | – | 26.1 µM | > 100 µM | 35 µM | > 100 µM | 17.1 µM | 42.3 µM |
| CCOC(=O)C(Cc1ccc(N(CCCl)CCCl)cc1)NC(=O)C(Cc1ccccc1)NC=O (stereo not given) | – | 0.727 µM | – | 0.241 µM | – | 0.222 µM | – | 0.365 µM | – | – | – | 0.355 µM | – | – | – | 0.499 µM | – | 0.254 µM | – | 0.338 µM |
